Results: patent US7223767B2, “Tetrahydroquinazolines and dihydrocyclopentapyrimidines as CRF antagonists” (Roche Palo Alto LLC, priority 2003, dated 2007)
Structures can show the parent of a compound that is named as a salt.

Tested on: not given
Test: not given
Details: not given

Work on `CCCC1(CCC)CCCc2c(Nc3ccc(Cl)cc3Cl)nc(C)nc21` (as salt: hydrochloride) [Compound 11, (2,4-Dichloro-phenyl)-(2-methyl-8,8-dipropyl-5,6,7,8-tetra-hydro-quinazolin-4-yl)-amine] yielded a melting point of 238.3 to 243.9 °C.

Molecular target: T1, CRF1 receptor (Homo sapiens, UniProt P34998)
T1 construct: Cell membranes are prepared according the method of Dieterich and DeSouza (1996); endogenous in cells; host or cells: IMR-32 human neuroblastoma cells (membranes)
T1 sequence (P34998 24-415): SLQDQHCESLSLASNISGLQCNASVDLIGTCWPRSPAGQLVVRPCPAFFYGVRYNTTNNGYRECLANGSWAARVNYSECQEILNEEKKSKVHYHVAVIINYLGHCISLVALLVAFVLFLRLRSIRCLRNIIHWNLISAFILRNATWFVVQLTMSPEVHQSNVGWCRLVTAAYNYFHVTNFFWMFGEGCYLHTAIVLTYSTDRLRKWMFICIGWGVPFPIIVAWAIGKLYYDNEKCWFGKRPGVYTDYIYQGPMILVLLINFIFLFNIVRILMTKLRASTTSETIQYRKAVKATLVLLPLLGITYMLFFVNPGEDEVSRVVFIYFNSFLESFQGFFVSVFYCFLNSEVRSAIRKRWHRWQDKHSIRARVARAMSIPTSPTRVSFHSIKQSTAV
Test: CRF1 Receptor Binding Assay (competition binding, IMR-32 cell membranes)
Details: CRF1 affinity; [125I]Tyr0-ovine CRF, human IMR-32 neuroblastoma cell membranes
Procedure: Human IMR-32 neuroblastoma cells are grown to 80% confluence in MEM medium containing 10% heat-inactivated FBS, 1 mM Sodium Pyruvate, and 0.1 mM nonessential amino acids. Cell membranes are prepared according the method of Dieterich and DeSouza (1996). The cells (˜5E+9) are resuspended in 10 volumes of wash buffer (5 mM Tris HCl, 10 mM MgCl2, 2 mM EGTA, pH 7.4 at RT), homogenized with a Polytron, and then centrifuged at 45,000 G for 20 min at 4° C. The membrane pellets are washed twice with wash buffer (45,000 G for 20 min at 4° C.) and then resuspended (50 mM Tris HCl, 10 mM MgCl2, 2 mM EGTA, pH 7.4 at RT). Protein concentration is determined using Pierce reagents and BSA as standard. Aliquots of 1-1.5 mL are stored at −80° C. until binding assay.
The competition binding assay is performed in a final volume of 250 μl which contains assay buffer (50 mM Tris-HCl, 10 MM MgCl2, 2 mM EGTA, 0.2% BSA, 0.1 mM bacitracin and 100 kIU/mL aprotinin pH 7.2 at R.T.), 0.05 nM [^125I]Tyr^0-ovine CRF (Du Pont New England Nuclear), 50 μg of membrane protein, and test compound at various concentrations. Non-specific binding is determined with 1 μM hCRF. Binding reactions are terminated after 2 hr incubation at 25° C. by filtering through 96-w GF/C filter plate using a Packard Harvester (Filtermate 196). The 96-w filter plate is pre-treated with 0.3% polyethyleneimine and pre-washed with washing buffer (50 mM Tris-HCl, 10 mM MgCl2, 2 mM EGTA, 0.2% BSA, pH 7.2 at 4° C.). Unbound radioactivity is removed by four rapid washes (0.8 ml/well) with wash buffer. The radioactivity is quantified using a Packard TopCount. Data are analyzed using non-linear iterative curve fitting to obtain IC50 and Hill slope values. PKi values are derived from pIC50 values (−log of IC50).

`CCCN(CC1CC1)c1nc(C)nc2c1CCCC2c1ccccc1` (stereo not drawn) [Compound 1, Cyclopropylmethyl-(2-methyl-8-phenyl-5,6,7,8-tetra-hydro-quinazolin-4-yl)-propyl-amine] and `CCCN(CC1CC1)c1nc(C)nc2c1CCCC2c1ccc(Cl)cc1` (stereo not drawn) [Compound 3, [8-(4-Chloro-phenyl)-2-methyl-5,6,7,8-tetrahydro-quina-zolin-4-yl]-cyclopropylmethyl-propyl-amine] are within 1.5-fold of each other in IC50: 2820 nM for the first, 2340 nM for the second.

Compared with `CCCN(CC1CC1)c1nc(C)nc2c1CCC[C@@]2(C)c1ccccc1` [Compound 2, Cyclopropylmethyl-((S)-2,8-dimethyl-8-phenyl-5,6,7,8-tetra-hydro-quinazolin-4-yl)-propyl-amine], `CCCN(CC1CC1)c1nc(C)nc2c1CCCC2(C)c1ccc(Cl)cc1` (stereo not drawn) [Compound 4, [8-(4-chloro-phenyl)-2,8-dimethyl-5,6,7,8-tetra-hydro-quinazolin-4-yl]-cyclopropylmethyl-pro-pyl-amine] is 3.3-fold higher in IC50: 525 nM for the first, 1740 nM for the second.

Going from `COCCN(CCOC)c1nc(C)nc2c1CCCC2c1ccc(Cl)cc1` (stereo not drawn) [Compound 5, [8-(4-Chloro-phenyl)-2-methyl-5,6,7,8-tetrahydro-quina-zolin-4-yl]-bis-(2-methoxy-ethyl)-amine] to `COCCN(CCOC)c1nc(C)nc2c1CCCC2(C)c1ccc(Cl)cc1` (stereo not drawn) [Compound 6, [8-(4-Chloro-phenyl)-2,8-dimethyl-5,6,7,8-tetra-hydro-quinazolin-4-yl]-bis-(2-methoxy-ethyl)-a-mine], the IC50 falls from 28800 nM to 11700 nM (2.5-fold). The second is the more potent here.

Going from `CCCN(CC1CC1)c1nc(C)nc2c1CCC2c1ccc(C)cc1C` (stereo not drawn) [Compound 9, Cyclopropylmethyl-[7-(2,4-dimethyl-phenyl)-2-meth-yl-6,7-dihydro-5H-cyclopentapyrimidin-4-yl]-pro-pyl-amine] to `CCCN(CC1CC1)c1nc(C)nc2c1CCC2(C)c1ccc(C)cc1C` (stereo not drawn) [Compound 10, Cyclopropylmethyl-[7-(2,4-dimethyl-phenyl)-2,7-di-methyl-6,7-dihydro-5H-cyclopentapyrimidin-4-yl]-pro-pyl-amine], the IC50 falls from 1120 nM to 661 nM (1.7-fold).
